Structures are written as SMILES.

One test deals with HUVEC. Nature of the test: adhesion of U937 cells to activated HUVEC. Type of test: cell-based, human. The conditions noted are these: 250 μM, FIG. 21. As to the method: (§1) Murine peritoneal exudate cell macrophages (PEC) were isolated by perfusion of mouse peritoneum and plated into 96-well trays at 5×10^5 cells per well. Cells were stimulated with 5 μg/ml Salmonella abortus equi -derived endotoxin (LPS; Sigma Chemical Co., L-1887) or […] IL-1α (Genzyme; Cambridge, Mass.) with or without the addition of CT1501R added to the cultures one hour prior to addition of the stimulus. At various times thereafter, supernatants were removed and levels of either TNF-α or IL-1α were assayed using commercial 96-well microtiter immunoassay kits (Genzyme; TNF; Endogen, Boston, Mass.; IL-1α) according to manufacturer's specifications. For the adhesion studies, early passage human umbilical vein endothelial cells (HUVEC) were obtained. from commercial suppliers (Clonetics, San Diego, Calif. or Cell Systems, Seattle, Wash.) and cultured in defined, Hepes buffered, serum free medium (Cell Systems, cat 301-180) supplemented with acidic FGF (Cell Systems cat 401-111). 4000 cells were plated into each well of a 96-well microtiter plate and allowed to incubate for 72 hrs at 37° C. […] After addition of […] Hanks Balanced Salt Solution (HBSS), the microtiter plate was then analyzed on a Millipore Cytofluor fluorescent plate reader (excitation 488 nm; emission 525 nm). […]

In the next test the test system is IL-6. Nature of the test: mouse plasma IL-6 ELISA after endotoxin. Type of test: in vivo. The conditions noted are these: for Plasma IL-6: LPS + CT-1501R. As to the method:
For ELISA measurements of cytokine levels in plasma, blood was collected by retro-orbital or cardiac puncture of anesthetized mice, immediately centrifuged and the EDTA plasma stored at -70° C. Particulate free plasma was thawed on ice and cytokine levels determined utilizing commercial ELISA assays with normal mouse plasma used to generate standard curves. Murine tumor necrosis factor-α and interleukin-1αkits were purchased from Genzyme (Cambridge, Mass.) and Endogen (Boston, Mass.), respectively. Each data point was an average of two ELISA measurements made from EDTA […] pooled from three mice. The data summarized in Table 3 were compiled from two independent experiments; data from Table 4 and 5 were from single experiments of three mice per data point.
In particular, peak levels observed at 6, 12 and 18 hours post endotoxin were decreased 1.2, 4.3 and 3.2-fold, respectively. Finally, IL-6 measurements were made in a similar manner (Table 6, FIG. 8).

Test [1] relates to IL-1α release in peritoneal macrophages. Nature of the test: IL-1α release in LPS activated PEC (ELISA). Type of test: cell-based, murine. The conditions noted are these: Mus musculus, Peritoneal macrophage, at 24 hours after LPS, FIG. 19, read-out: maximum inhibition of IL-1α release. As to the method: as §1
In general terms: An ELISA detects its analyte on a solid surface through an enzyme-linked reagent.

The inhibition is the relative decrease from the control value, in per cent. Consider `C[C@@H](O)CCCCn1c(=O)c2c(ncn2C)n(C)c1=O` [CT1501R, (R)-1-(5-hydroxyhexyl)-3,7-dimethylxanthine], for which the “adhesiveness of activated HUVEC for U937 cells” value with HUVEC (1 hour prior to TNF-α, IL-1α or LPS) was “marked suppression in the relative adhesiveness of the activated HUVEC”. Moreover, the “background attachment of U937 cells to HUVEC” value in the test on HUVEC (non-activated HUVEC) is “no significant effect on background attachment of U937 cells to HUVEC”. Moreover, the “fold decrease of plasma IL-6” value in the test on IL-6 (3 hours post endotoxin) was determined as 1.7 fold; in the test with IL-6 (6 hours post endotoxin), 2.0 fold; with IL-6 (12 hours post endotoxin), 4.1 fold. The “Plasma IL-6” value with IL-6 (0 hours post LPS) was determined as 0 ng/mL; with IL-6 (0.17 hours post LPS) it was 0.14 ng/mL; with IL-6 (0.5 hours post LPS), 1 ng/mL; in the test on IL-6 (1 hour post LPS) it was 31.8 ng/mL; in the test on IL-6 (3 hours post LPS), 183 ng/mL; with IL-6 (6 hours post LPS), 121 ng/mL. Besides, the “Plasma IL-6” value with IL-6 (12 hours post LPS) was 29.6 ng/mL; with IL-6 (18 hours post LPS), 19.8 ng/mL; with IL-6 (24 hours post LPS) it was 25.6 ng/mL; with IL-6 (36 hours post LPS) it was 1.64 ng/mL; in the test on IL-6 (48 hours post LPS) it was 0.4 ng/mL. The inhibition at 250 µM in test [1] is approximately 50%.
